Experimental data taken from patent US20250346584A1, “NOVEL KAPPA OPIOID LIGANDS” (The Scripps Research Institute, priority 2012, published 2025).

Molecular target: kappa opioid receptor (OPRK1) (Homo sapiens (Human), UniProt P41145)
Assay: OPRK1 antagonist assay (b-arrestin-2-TEV / b-lactamase reporter cell line, EC80 U-50488 challenge)
Format: cell-based
Details: read-out: IC50 nM (% inhib if other than 50%); antagonist mode vs EC80 U-50488; NA = not active at concentrations up to 10 μM

Sequence of kappa opioid receptor (OPRK1) (P41145 whole entry): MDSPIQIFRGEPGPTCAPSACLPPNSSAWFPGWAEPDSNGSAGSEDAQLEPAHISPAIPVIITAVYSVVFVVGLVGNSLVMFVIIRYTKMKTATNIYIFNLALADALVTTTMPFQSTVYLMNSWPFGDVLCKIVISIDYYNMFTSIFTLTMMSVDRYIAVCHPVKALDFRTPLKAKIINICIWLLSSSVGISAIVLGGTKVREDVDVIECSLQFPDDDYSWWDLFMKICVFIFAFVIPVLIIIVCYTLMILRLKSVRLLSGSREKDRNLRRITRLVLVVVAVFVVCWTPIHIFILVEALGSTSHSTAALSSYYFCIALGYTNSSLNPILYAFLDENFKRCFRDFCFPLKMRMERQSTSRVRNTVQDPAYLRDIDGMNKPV

Row | SMILES | IC50 [nM]
1 | Cc1nc(-c2cc3ccc(F)c(C)c3nc2N2CCC(NC3CCCC3)CC2)no1 [compound 504] | 45
2 | Cc1nc(-c2cc3ccc(F)c(C)c3nc2N2CCC(NCC(C)C)CC2)no1 [compound 505] | 126
3 | Cc1nc(-c2cc3cc(C)c(F)cc3nc2N2CCC(N[C@H]3CCCC[C@@H]3O)CC2)no1 [compound 506] | 48
4 | Cc1nc(-c2cc3cc(C)c(F)cc3nc2N2CCC(NC3CCOCC3)CC2)no1 [compound 507] | 43
5 | CO[C@H]1CN(c2nc3cc(F)ccc3cc2-c2nc(C)no2)CC[C@H]1NC1CCCCC1 [compound 508] | 5
6 | Cc1cc(-c2nc(C3CC3)no2)c(N2CCC(NCC(C)C)CC2)nn1 [compound 509] | 30
7 | Cc1nc(-c2cc3ccc(F)c(C)c3nc2N2CCC(N[C@H]3CCCC[C@@H]3O)CC2)no1 [compound 510] | 115
8 | Cc1nc(-c2cc3ccc(F)c(C)c3nc2N2CCC(NC3CCOCC3)CC2)no1 [compound 511] | 227
9 | Cc1nc(-c2cc3cc(C)c(F)cc3nc2N2CCC(NC3CCCC3)CC2)no1 [compound 512] | 12
10 | Cc1nc(-c2cc3cc(C)c(F)cc3nc2N2CCC(NCC(C)C)CC2)no1 [compound 513] | 27
11 | CO[C@@H]1CN(c2nc3cc(F)ccc3cc2-c2nc(C)no2)CC[C@@H]1NC1CCCCC1 [compound 514] | 55
12 | Cc1noc(-c2cc3ccc(F)cc3nc2N2CCC(NC3CCCCC3)CC2)n1 [compound 515] | 7
13 | Cc1ccc2nc(N3CCC(N[C@H]4CCCC[C@@H]4O)CC3)c(-c3ccncn3)cc2c1 [compound 516] | 564
14 | Cc1cnc(N2CCC(NC3CCCCC3)CC2)c(-c2ccncn2)c1 [compound 517] | 1140
15 | Cc1ccc2nc(N3CCC(NC4CCOCC4)CC3)c(-c3nc(C)no3)nc2c1 [compound 518] | 410
16 | CO[C@H]1CN(c2nc3ccc(C)cc3nc2-c2nc(C)no2)CC[C@H]1NC1CCCCC1 [compound 519] | 95
17 | CO[C@H]1CN(c2nc3cccc(F)c3cc2-c2nc(C)no2)CC[C@H]1NC1CCCCC1 [compound 520] | 19

Next, values leading:

Row | IC50 [nM] | SMILES
18 | 278 | CO[C@H]1CN(c2nc3ccc(C)cc3cc2-c2nc(C)no2)CC[C@H]1NC1CCC(F)(F)CC1 [compound 521]
19 | 67 | CO[C@@H]1CN(c2nc3ccc(C)cc3cc2-c2nc(C)no2)CC[C@@H]1NC1CCOCC1 [compound 522]
20 | 17 | CCc1ccc2nc(N3CCC(N[C@H](C)CC)CC3)c(-c3nc(C)no3)cc2c1 [compound 525]
21 | 49 | Cc1noc(-c2cc3c(F)cccc3nc2N2CCC(NCC(C)C)CC2)n1 [compound 526]
22 | 20 | Cc1noc(-c2cc3ccc(F)cc3nc2N2CCC(NCC(C)C)CC2)n1 [compound 527]
23 | 23 | Cc1noc(-c2cc3ccc(F)cc3nc2N2CCC(NC3CCOCC3)CC2)n1 [compound 528]
24 | 369 | CO[C@H]1CN(c2nc3ccc(C)cc3cc2-c2nc(C)no2)CC[C@H]1NCC(C)C [compound 529]
25 | 5100 | CO[C@H]1CN(c2nc3ccc(F)cc3cc2-c2nc(C)no2)CC[C@H]1NCC(C)C [compound 530]
26 | 334 | Cc1ccc2nc(N3CCC(NC4CCCCC4)CC3)c(-c3ccncn3)cc2c1 [compound 532]
27 | 263 | Cc1ccc2nc(N3CCC(NC4CCCC4)CC3)c(-c3ccncn3)cc2c1 [compound 533]
28 | 600 | Cc1ccc2nc(N3CCC(NCC(C)C)CC3)c(-c3ccncn3)cc2c1 [compound 534]
29 | 19 | Cc1noc(-c2cc3ccc(Cl)cc3nc2N2CCC(NC3CCCCC3)CC2)n1 [compound 536]
30 | 12 | CO[C@H]1CN(c2nc3cc(Cl)ccc3cc2-c2nc(C)no2)CC[C@H]1NC1CCCCC1 [compound 537]
31 | 970 | CO[C@H]1CN(c2nc3cc(F)ccc3cc2-c2nc(C)no2)CC[C@H]1NCC(C)C [compound 538]
32 | 3700 | COC(=O)c1cc(C)ccc1N1CCC(NC2CCCCC2)C(OC)C1 (centres unmarked) [compound 539]
33 | 16 | CCOC(=O)c1cc(Br)cnc1N1CC[C@H](NC2CCCCC2)[C@@H](O)C1 [compound 540]
34 | 45 | Cc1noc(-c2cc3ccc(Cl)cc3nc2N2CCC(NCC(C)C)CC2)n1 [compound 541]
35 | 32 | Cc1noc(-c2cc(C)c(C)nc2N2CC[C@H](NC3CCCCC3)[C@@H](O)C2)n1 [compound 543]
